Measurements taken from US20180327375A1, “AROMATIC SURFACTANTS” (REGENTS OF THE UNIVERSITY OF MINNESOTA, priority 2015, published 2018).
Several values for one entry are separate records, joined by “and”; a condition that tells them apart may be missing. Identical values can stand only once. Counter-ions that a name gives are not always drawn. Like-named read-outs stand apart in the source and are kept apart here.

How the values were obtained:
Assay type in all cases: physicochemical
[1] = Hardness tolerance / hard water stability (surface tension and turbidity vs CaCl2 concentration); details: for Turbid conc.: onset of turbidity
Description: Precipitation of the anionic surfactant from hard water is an undesired process in detergency. The tendency of the anionic surfactants to precipitate is quantified by analyzing hardness tolerance. Hardness tolerance is the minimum concentration of counterion, such as, Ca^2+ and Mg^2+, precipitating with surfactant, resulting in deactivation of the surfactant performance (C. H. Rodriguez, L. H. Lowery, J. F. Scamehorn, J. H. Harwell, Kinetics of precipitation of surfactants. I. Anionic surfactants with calcium and with cationic surfactants. Journal of Surfactants and Detergents 4, 1-14 (2001); C. H. Rodriguez, C. Chintanasathien, J. F. Scamehorn, C. Saiwan, S. Chavadej, Precipitation in solutions containing mixtures of synthetic anionic surfactant and soap. I. Effect of sodium octanoate on hardness tolerance of sodium dodecyl sulfate. Journal of Surfactants and Detergents 1, 321-328 (1998); and J. F. Scamehorn, “Precipitation of mixtures of anionic surfactants” in mixed Surfactant systems ACS Symposium Series (American Chemical Society: Washington D.C., 1992), pp. 392-401). Calcium chloride was used as a divalent counterion, and surface tension of the surfactant solution was measured with increasing concentration of CaCl2 from 1 mM to 450 mM. The value of calcium concentration above which the surface tension of the surfactant solution increased was recorded as the tolerance value of the surfactant towards calcium as indicated by the dashed red line in FIGS. 46A to 49B.
All experiments were carried out at a concentration equal to twice CMC of each surfactant, and the point of transition from a clear solution to a turbid one was also monitored. FIGS. 50A to 50E illustrate this effect for a linear alkylbenzene sulfonate (LAS) solution. Below the turbid point, the surfactant solution was clear as shown by FIGS. 50B and 50C which changed to a cloudy solution at calcium concentrations equal to and greater than the turbid point (FIG. 50D and FIG. 50E). The point of micelle stability was marked by an increase in the surface tension of the surfactant solution with an increase in calcium concentration. FIG. 50C corresponds to the micelle stability concentration and FIG. 50D corresponds to the turbid concentration. Micelle stability is defined as the calcium concentration at the increasing point of surface tension, and turbid concentration marks the onset of turbidity in the surfactant solution The solution transitions from clear to turbid as shown in FIGS. 50B to 50E

[2] = Krafft point by conductivity vs temperature; details: 1.0 wt % surfactant in water (2.0 wt % for OFS-12-1/O)
Procedure: Krafft point or Krafft temperature is the minimum temperature at which surfactants form micelles. Below Krafft point, the surfactants precipitate out of solution and remain in the crystalline phase. FIG. 30 depicts the apparatus utilized for the measurement of Krafft points. A 1.0 wt % solution of surfactant in deionized water was prepared for all surfactants except in the case of OFS-12-1/O where a 2.0 wt % solution was used instead, since its CMC is roughly about 1.1 wt %. 50 mL of the prepared solution was poured into a beaker surrounded by a freezing mixture of ice and salt (sodium chloride) mounted on a laboratory hot plate with magnetic stirring. The Krafft point (TK) of the surfactants was measured by estimating the degree of counterion dissociation using a conductivity meter (COND 6+, Oakton/Eutech Instruments) immersed in the surfactant solution capable of measuring both, conductivity and temperature. The magnetic stirring speed was set to 650 rpm and the solution was first allowed to cool to 0° C. Upon attainment of this temperature, the solution was slowly heated and the conductivity was measured in every 0.5° C. increments until it reached a steady value. […] Visually, this corresponded to the surfactant solution transitioning from a turbid system due to the precipitated surfactant crystals below the Krafft point to a clear solution indicating the dissolution of surfactants and the formation of micelles in water.
For the OFS-Cocinic, n=8-18 surfactant, the conductivity vs temperature plot was erratic, which is attributed to the presence of 6 different surfactants in the mixture. The solution changed from turbid to clear at approximately 18.5° C. which was, therefore, reported as the Krafft point. Methyl Ester Sulfonate (MES), Sodium Lauryl Ether Sulfate (SLES), OFS-7 and all OFS-n-1/O surfactant solutions remained clear even at 0° C.; the Krafft point was thus reported as <0° C.

[3] = Particle size distribution of micelles via dynamic light scattering (DLS)
Procedure: Dynamic Light Scattering (DLS) has been used in the past for studying surfactant aggregates (N. Vlachy, M. Drechsler, J.-M. Verbavatz, D. Touraud, W. Kunz, Role of surfactant headgroup on the counterion specificity in the micelle-to-vesicle transition through salt addition. J. Colloid Interface Sci. 319, 542-548 (2008)). Micelle size distribution studies of the OFS-12 surfactant was performed using the Microtrac NANO-flex analyzer which employs a 180° scattering angle DLS technique. Two different surfactant concentration samples were prepared (5.0 and 10×CMC, 0.35 and 0.7 wt %) by dissolving the required amount of surfactant in deionized water and filtering the solution after surfactant dissolution using a 0.2μ micropore filter to remove any dust particles. Prior to each sample run, a blank solution (DI water) was used to set the baseline to zero. FIGS. 26A and 26B show the average particle size distribution plots for the surfactant solutions. The average values were computed based on five individual trials each lasting 120 sec.

Row | Krafft Point [2] | Compound | Micelle stability conc. ([1]; surfactant at twice CMC) | Micelle Stability ([1]; surfactant at twice CMC, calcium concentration where surface tension starts to increase) | Turbid conc. ([1]; surfactant at twice CMC) | Krafft Point ([2]; sulfate) | Micelle Stability [1] | Micelle stability conc. [1] | Average micelle size (number distribution) ([3]; surfactant concentration 5.0×CMC in deionized water) | Average micelle size (number distribution) ([3]; surfactant concentration 10.0×CMC in deionized water)
1 | < 0 °C | CCCCCCCc1ccc(S(=O)(=O)[O-])o1.[Na+] [OFS-7, Sodium 5-Heptylfuran-2-Sulfonate] | – | – | 230 ppm of CaCl2 | – | 120 ppm Ca^2+ | 110 ppm of CaCl2 | – | –
2 | 41.5 °C and 41.5 ± 0.9 °C | CCCCCCCCCCCCCCc1ccc(S(=O)(=O)[O-])o1.[Na+] [OFS-14, Sodium 5-Tetradecylfuran-2-Sulfonate] | – | – | 2,000 ppm of CaCl2 | – | > 50,000 ppm Ca^2+ | >50,000 ppm of CaCl2 | – | –

Continued, compound first:

Row | Compound | Krafft Point [2] | Micelle stability conc. ([1]; surfactant at twice CMC) | Micelle Stability ([1]; surfactant at twice CMC, calcium concentration where surface tension starts to increase) | Turbid conc. ([1]; surfactant at twice CMC) | Krafft Point ([2]; sulfate) | Micelle Stability [1] | Micelle stability conc. [1] | Average micelle size (number distribution) ([3]; surfactant concentration 5.0×CMC in deionized water) | Average micelle size (number distribution) ([3]; surfactant concentration 10.0×CMC in deionized water)
3 | CCCCCCCCCCCCOS(=O)(=O)O [SLS, sodium dodecyl sulfate, reference compound] | – | 33 ppm of CaCl2 | 33 ppm Ca^2+ | 33 ppm of CaCl2 | 15 °C and 15.0 ± 1.2 °C | – | – | – | –
4 | sodium lauryl ether sulfate [SLES, reference compound] | <0 °C | – | – | >50,000 ppm of CaCl2 | – | > 50,000 ppm Ca^2+ | >50,000 ppm of CaCl2 | – | –
5 | CCCCCCCCCCCCc1ccc(S(=O)(=O)[O-])o1.[Na+] [OFS-12, Sodium 5-Dodecylfuran-2-Sulfonate] | 30 °C and 30.0 ± 1.0 °C | – | – | 10,000 ppm of CaCl2 | – | > 50,000 ppm Ca^2+ | >50,000 ppm of CaCl2 | 7.41 nm | 6.29 nm
